Reference: PubChem BioAssay (NCI)
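Five concentrations, 48 hours, 96-well plates. GI50: concentration for 50% inhibition of growth. TGI: concentration producing complete growth inhibition.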

Experiments:
Assay in all cases: DTP human tumour cell line panel, 48 h
SNB-75 CNS = test system: SNB-75 CNS
MDA-MB-435 = test system: MDA-MB-435
IGROV1 ovarian = test system: IGROV1 ovarian
SK-MEL-28 melanoma = test system: SK-MEL-28 melanoma
M14 melanoma = test system: M14 melanoma
MDA-N = test system: MDA-N
HOP-92 NSCLC = test system: HOP-92 NSCLC
SW-620 colon = test system: SW-620 colon
HCT-116 colon = test system: HCT-116 colon
NCI-H460 lung = test system: NCI-H460 lung
RXF 393 renal = test system: RXF 393 renal
BT-549 breast = test system: BT-549 breast
NCI-H23 lung = test system: NCI-H23 lung
UACC-257 melanoma = test system: UACC-257 melanoma
SK-MEL-2 melanoma = test system: SK-MEL-2 melanoma
HT29 colon = test system: HT29 colon
OVCAR-3 ovarian = test system: OVCAR-3 ovarian
A498 renal = test system: A498 renal
SK-MEL-5 melanoma = test system: SK-MEL-5 melanoma
SF-539 CNS = test system: SF-539 CNS
CCRF-CEM leukemia = test system: CCRF-CEM leukemia
MALME-3M melanoma = test system: MALME-3M melanoma
MCF7 breast = test system: MCF7 breast
HCT-15 colon = test system: HCT-15 colon
HL-60(TB) leukemia = test system: HL-60(TB) leukemia
TK-10 renal = test system: TK-10 renal
K-562 leukemia = test system: K-562 leukemia
COLO 205 colon = test system: COLO 205 colon
UACC-62 melanoma = test system: UACC-62 melanoma
DU-145 prostate = test system: DU-145 prostate
CAKI-1 renal = test system: CAKI-1 renal
OVCAR-4 ovarian = test system: OVCAR-4 ovarian
HCC-2998 colon = test system: HCC-2998 colon
SK-OV-3 ovarian = test system: SK-OV-3 ovarian
ACHN renal = test system: ACHN renal
SF-295 CNS = test system: SF-295 CNS
SN12C renal = test system: SN12C renal
A549 NSCLC = test system: A549 NSCLC
HOP-62 NSCLC = test system: HOP-62 NSCLC
SNB-19 CNS = test system: SNB-19 CNS
MOLT-4 leukemia = test system: MOLT-4 leukemia
U251 CNS = test system: U251 CNS
SF-268 CNS = test system: SF-268 CNS
NCI-H226 lung = test system: NCI-H226 lung
UO-31 renal = test system: UO-31 renal
PC-3 prostate = test system: PC-3 prostate
NCI/ADR-RES ovarian = test system: NCI/ADR-RES ovarian
KM12 colon = test system: KM12 colon
SR leukemia = test system: SR leukemia
NCI-H522 lung = test system: NCI-H522 lung
MDA-MB-231 breast = test system: MDA-MB-231 breast
OVCAR-5 ovarian = test system: OVCAR-5 ovarian
EKVX NSCLC = test system: EKVX NSCLC
OVCAR-8 ovarian = test system: OVCAR-8 ovarian
HS 578T breast = test system: HS 578T breast
RPMI-8226 leukemia = test system: RPMI-8226 leukemia
LOX IMVI melanoma = test system: LOX IMVI melanoma
T-47D breast = test system: T-47D breast
786-0 renal = test system: 786-0 renal

CCOP(=O)(OCC)C(Nc1ccc(F)cc1)c1cccc([N+](=O)[O-])c1 (stereo not drawn)
TGI (SNB-75 CNS): > 100000 nM | TGI (MDA-MB-435): > 100000 nM | TGI (IGROV1 ovarian): > 100000 nM | TGI (SK-MEL-28 melanoma): > 100000 nM | TGI (M14 melanoma): > 100000 nM | TGI (MDA-N): > 100000 nM | TGI (HOP-92 NSCLC): > 100000 nM | TGI (SW-620 colon): > 100000 nM | TGI (HCT-116 colon): > 100000 nM | TGI (NCI-H460 lung): > 100000 nM | TGI (RXF 393 renal): > 100000 nM | TGI (BT-549 breast): > 100000 nM | TGI (NCI-H23 lung): > 100000 nM | TGI (UACC-257 melanoma): > 100000 nM | TGI (SK-MEL-2 melanoma): > 100000 nM | TGI (HT29 colon): > 100000 nM | TGI (OVCAR-3 ovarian): > 100000 nM | TGI (A498 renal): > 100000 nM | TGI (SK-MEL-5 melanoma): > 100000 nM | TGI (SF-539 CNS): > 100000 nM | TGI (CCRF-CEM leukemia): > 100000 nM | TGI (MALME-3M melanoma): > 100000 nM | TGI (MCF7 breast): > 100000 nM | TGI (HCT-15 colon): > 100000 nM | TGI (HL-60(TB) leukemia): > 100000 nM | TGI (TK-10 renal): > 100000 nM | TGI (K-562 leukemia): > 100000 nM | TGI (COLO 205 colon): > 100000 nM | TGI (UACC-62 melanoma): > 100000 nM | TGI (DU-145 prostate): > 100000 nM | TGI (CAKI-1 renal): > 100000 nM | TGI (OVCAR-4 ovarian): > 100000 nM | TGI (HCC-2998 colon): > 100000 nM | TGI (SK-OV-3 ovarian): > 100000 nM | TGI (ACHN renal): > 100000 nM | TGI (SF-295 CNS): > 100000 nM | TGI (SN12C renal): > 100000 nM | TGI (A549 NSCLC): > 100000 nM | TGI (HOP-62 NSCLC): > 100000 nM | TGI (SNB-19 CNS): > 100000 nM | TGI (MOLT-4 leukemia): > 100000 nM | TGI (U251 CNS): > 100000 nM | TGI (SF-268 CNS): > 100000 nM | TGI (NCI-H226 lung): > 100000 nM | TGI (UO-31 renal): > 100000 nM | TGI (PC-3 prostate): > 100000 nM | TGI (NCI/ADR-RES ovarian): > 100000 nM | TGI (KM12 colon): > 100000 nM | TGI (SR leukemia): > 100000 nM | TGI (NCI-H522 lung): > 100000 nM | TGI (MDA-MB-231 breast): > 100000 nM | TGI (OVCAR-5 ovarian): > 100000 nM | TGI (EKVX NSCLC): > 100000 nM | TGI (OVCAR-8 ovarian): > 100000 nM | TGI (HS 578T breast): > 100000 nM | TGI (RPMI-8226 leukemia): > 100000 nM | TGI (LOX IMVI melanoma): > 100000 nM

CCOC(=O)[C@@H](C)C[C@H](Cc1ccccc1)NC(=O)c1csc([C@@H](C[C@H](C(C)C)N(C)C(=O)[C@@H](NC(=O)[C@H]2C[C@H](O[Si](C)(C)C(C)(C)C)CCN2C)C(C)C)OC(C)=O)n1
GI50 (SNB-75 CNS): 205 nM | TGI (SNB-75 CNS): 760 nM | GI50 (MDA-MB-435): 38.9 nM | TGI (MDA-MB-435): 165 nM | GI50 (IGROV1 ovarian): 272 nM | TGI (IGROV1 ovarian): > 8330 nM | GI50 (SK-MEL-28 melanoma): 491 nM | TGI (SK-MEL-28 melanoma): > 8330 nM | GI50 (M14 melanoma): 198 nM | TGI (M14 melanoma): 1030 nM | GI50 (HOP-92 NSCLC): 181 nM | TGI (HOP-92 NSCLC): 6060 nM | GI50 (SW-620 colon): 319 nM | TGI (SW-620 colon): > 8330 nM | GI50 (HCT-116 colon): 246 nM | TGI (HCT-116 colon): 1630 nM | GI50 (NCI-H460 lung): 188 nM | TGI (NCI-H460 lung): 1340 nM | GI50 (RXF 393 renal): 159 nM | TGI (RXF 393 renal): 481 nM | GI50 (BT-549 breast): 285 nM | TGI (BT-549 breast): 2530 nM | GI50 (NCI-H23 lung): 333 nM | TGI (NCI-H23 lung): > 8330 nM | GI50 (UACC-257 melanoma): 789 nM | TGI (UACC-257 melanoma): > 8330 nM | GI50 (SK-MEL-2 melanoma): 263 nM | TGI (SK-MEL-2 melanoma): > 7210 nM | GI50 (HT29 colon): 267 nM | TGI (HT29 colon): 1960 nM | GI50 (OVCAR-3 ovarian): 192 nM | TGI (OVCAR-3 ovarian): > 2070 nM | GI50 (A498 renal): 167 nM | TGI (A498 renal): 890 nM | GI50 (SK-MEL-5 melanoma): 187 nM | TGI (SK-MEL-5 melanoma): 1390 nM | GI50 (SF-539 CNS): 210 nM | TGI (SF-539 CNS): 625 nM | GI50 (CCRF-CEM leukemia): 298 nM | TGI (CCRF-CEM leukemia): > 6870 nM | GI50 (MALME-3M melanoma): 215 nM | TGI (MALME-3M melanoma): > 8330 nM | GI50 (MCF7 breast): 132 nM | TGI (MCF7 breast): > 8330 nM | GI50 (HCT-15 colon): 427 nM | TGI (HCT-15 colon): > 5020 nM | GI50 (HL-60(TB) leukemia): 249 nM | TGI (HL-60(TB) leukemia): 896 nM | GI50 (TK-10 renal): 946 nM | TGI (TK-10 renal): > 8330 nM | GI50 (K-562 leukemia): 170 nM | TGI (K-562 leukemia): > 5060 nM | GI50 (COLO 205 colon): 145 nM | TGI (COLO 205 colon): 459 nM | GI50 (UACC-62 melanoma): 54.5 nM | TGI (UACC-62 melanoma): 3580 nM | GI50 (DU-145 prostate): 287 nM | TGI (DU-145 prostate): > 3910 nM | GI50 (CAKI-1 renal): 351 nM | TGI (CAKI-1 renal): > 8330 nM | GI50 (OVCAR-4 ovarian): 674 nM | TGI (OVCAR-4 ovarian): > 8330 nM | GI50 (HCC-2998 colon): 182 nM | TGI (HCC-2998 colon): 690 nM | GI50 (SK-OV-3 ovarian): 198 nM | TGI (SK-OV-3 ovarian): > 8330 nM | GI50 (T-47D breast): 297 nM | TGI (T-47D breast): > 8330 nM | GI50 (ACHN renal): 427 nM | TGI (ACHN renal): > 8330 nM | GI50 (SF-295 CNS): 249 nM | TGI (SF-295 CNS): 3410 nM | GI50 (SN12C renal): 389 nM | TGI (SN12C renal): 6420 nM | GI50 (A549 NSCLC): 379 nM | TGI (A549 NSCLC): > 8330 nM | GI50 (HOP-62 NSCLC): 411 nM | TGI (HOP-62 NSCLC): > 8010 nM | GI50 (SNB-19 CNS): 299 nM | TGI (SNB-19 CNS): > 8330 nM | GI50 (MOLT-4 leukemia): 354 nM | TGI (MOLT-4 leukemia): > 8330 nM | GI50 (U251 CNS): 319 nM | TGI (U251 CNS): > 4180 nM | GI50 (SF-268 CNS): 441 nM | TGI (SF-268 CNS): > 8330 nM | GI50 (NCI-H226 lung): 493 nM | TGI (NCI-H226 lung): > 4180 nM | GI50 (UO-31 renal): 440 nM | TGI (UO-31 renal): > 8330 nM | GI50 (PC-3 prostate): 220 nM | TGI (PC-3 prostate): > 8330 nM | GI50 (NCI/ADR-RES ovarian): 1290 nM | TGI (NCI/ADR-RES ovarian): 5030 nM | GI50 (KM12 colon): 241 nM | TGI (KM12 colon): > 8330 nM | GI50 (SR leukemia): 38.7 nM | TGI (SR leukemia): 1820 nM | GI50 (NCI-H522 lung): 128 nM | TGI (NCI-H522 lung): 1030 nM | GI50 (MDA-MB-231 breast): 329 nM | TGI (MDA-MB-231 breast): 1890 nM | GI50 (OVCAR-5 ovarian): 296 nM | TGI (OVCAR-5 ovarian): > 7430 nM | GI50 (786-0 renal): 286 nM | TGI (786-0 renal): > 4360 nM | GI50 (EKVX NSCLC): 505 nM | TGI (EKVX NSCLC): > 8330 nM | GI50 (OVCAR-8 ovarian): 744 nM | TGI (OVCAR-8 ovarian): > 8330 nM | GI50 (HS 578T breast): 217 nM | TGI (HS 578T breast): 1350 nM | GI50 (RPMI-8226 leukemia): 275 nM | TGI (RPMI-8226 leukemia): 2250 nM | GI50 (LOX IMVI melanoma): 304 nM | TGI (LOX IMVI melanoma): > 5080 nM
